System: antibody (anti-gadolinium-DTPA)
Experiment: Immunoassay of gadolinium DTPA, standard curve (HRP-conjugate, microtiter plate)
Type: binding, rabbit
Procedure: White New Zealand rabbits were injected subcutaneously with 1 mg of antigen (1 mg/ml) in multiple sites on the rabbit's back according to the schedule in Table 2. The initial injection was prepared in Freund's complete adjuvant. All other injections were prepared in Freund's incomplete adjuvant. Coating polystyrene microtiter plates. Microtiter strips were coated with 200 ul of 10 ug/ml antibody solution diluted in 0.1 M carbonate buffer pH 9 and incubated overnight at room temperature. The coated plates were blocked with a phosphate buffered saline, pH 7.4 solution containing bovine serum (5 mg/ml) and dextrose 20 mg/ml) for 30 minutes, blotted dry and stored at 4° C. until used. All plates were used within 5 days of preparation. In a typical preparation the coating antibody was a goat anti-rabbit serum. HRP-conjugates. HRP-conjugates prepared as described in Example 11 were diluted between 1 to 100 and 1 to 1000 into phosphate buffered saline, pH 7.4 buffer containing bovine albumin (1 mg/ml). General immunoassay protocols for analytes were performed as follows. 100 μl of standard or serum sample was pipeted into appropriate wells in duplicate followed by 100 μl of antibody. To each well was added 200 μl of HRP-conjugate. After a 60 minute incubation at room temperature the wells were aspirated and washed three times with phosphate buffered saline, pH 7.4 containing (0.1% serum albumin and 0.01% Tween 20. To each well was added 200 ul of substrate solution and incubated for 30 minutes at room temperature. The development of color was stopped by the addition of 50 μl of stop solution. The wells were read using a microtiter plate reader. Standard curve data for gadolinium DTPA is shown in Table 3. Standard values were chosen specifically for this assay as shown in Table 3.

SMILES: O=C([O-])CN(CCN(CC(=O)[O-])CC(=O)[O-])CCN(CC(=O)[O-])CC(=O)[O-].[Gd+3] [Gadolinium DTPA, gadolinium DTPA]
- Optical density, 450 nm (Gadolinium DTPA concentration 1 × 10^−2 M): 0.29
- Optical density, 450 nm (Gadolinium DTPA concentration 1 × 10^−3 M): 0.42
- Optical density, 450 nm (Gadolinium DTPA concentration 1 × 10^−4 M): 0.48
- Optical density, 450 nm (Gadolinium DTPA concentration 1 × 10^−5 M): 0.57
- Optical density, 450 nm (Gadolinium DTPA concentration 1 × 10^−6 M): 0.58
- Optical density, 450 nm (Gadolinium DTPA concentration 5 × 10^−5 M): 0.55
- Optical density, 450 nm (Gadolinium DTPA concentration 5 × 10^−6 M): 0.61
